The test system of this assay is P388 leukemia ip, CD2F1 mice, survival T/C. As to the kind of experiment: NCI In Vivo Anticancer Drug Screen. Data for tumor model P388 Leukemia (intraperitoneal) in CD2F1 (CDF1) mice. Particulars: endpoint: median survival time, higher = longer survival. In outline:
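Mice carrying the transplanted tumor received test compound or vehicle. Survival was recorded in each group, and the value is the treated-group measurement divided by that of the vehicle-treated control group.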

The mark [1] stands for this setting: dose: 50.0 mg/kg/injection, schedule: Q01DX009 (ip), vehicle: Klucel (hydroxypropylcellulose) (HPC).
The mark [2] stands for this setting: dose: 100.0 mg/kg/injection, schedule: Q01DX009 (ip), vehicle: Klucel (hydroxypropylcellulose) (HPC).
[3] abbreviates: dose: 200.0 mg/kg/injection, schedule: Q01DX009 (ip), vehicle: Klucel (hydroxypropylcellulose) (HPC).
[4] abbreviates: dose: 100.0 mg/kg/injection, schedule: Q01DX009 (ip), vehicle: saline with Tween-80.
Setting [5] is: dose: 100.0 mg/kg/injection, schedule: Q04DX003 (ip), vehicle: saline with Tween-80.
Where [6] appears, read: dose: 200.0 mg/kg/injection, schedule: Q01DX009 (ip), vehicle: saline with Tween-80.
[7] abbreviates: dose: 200.0 mg/kg/injection, schedule: Q04DX003 (ip), vehicle: saline with Tween-80.
The mark [8] stands for this setting: dose: 60.0 mg/kg/injection, schedule: Q01DX005 (ip), vehicle: saline with Tween-80.
Where [9] appears, read: dose: 120.0 mg/kg/injection, schedule: Q01DX005 (ip), vehicle: saline with Tween-80.
The mark [10] stands for this setting: dose: 50.0 mg/kg/injection, schedule: Q01DX009 (ip), vehicle: saline with Tween-80.
Where [11] appears, read: dose: 50.0 mg/kg/injection, schedule: Q01DX005 (ip), vehicle: Klucel (hydroxypropylcellulose) (HPC).
Where [12] appears, read: dose: 100.0 mg/kg/injection, schedule: Q01DX005 (ip), vehicle: Klucel (hydroxypropylcellulose) (HPC).

SMILES strings stand for the structures. Where “and” joins values, the source holds several entries; their conditions need not be identical. Equal values may be shown once. Toxic doses and inconclusive results are not listed.

Turning to `CCCCCCCCC(=O)OCCN(CCOC(=O)CCCCCCCC)C(=O)COC(=O)CCCCCCCC`, the T/C reads like this: under setting [1], 102 % of control; under setting [2], 113 % of control; under setting [3], 93 % of control.

Consider `Cc1nc2[nH]c(=S)[nH]c(=O)c2nc1C`, for which the T/C is, setting by setting: under setting [4], 104 % of control; under setting [5], 95 % of control; under setting [6], 100 % of control; under setting [7], 95 % of control; (dose: 400.0 mg/kg/injection, schedule: Q01DX009 (ip), vehicle: saline with Tween-80) 95 % of control; (dose: 400.0 mg/kg/injection, schedule: Q04DX003 (ip), vehicle: saline with Tween-80) 95 % of control.

Turning to `COc1ccc(N2C(=O)C(C)SC23C(=O)Nc2ccccc23)cc1` (centres undefined), the T/C is, setting by setting: under setting [8], 99 % of control; under setting [9], 100 % of control; (dose: 240.0 mg/kg/injection, schedule: Q01DX005 (ip), vehicle: saline with Tween-80) 98 % of control.

With `ClCCN(CCCl)c1ccc(CCN2CCOCC2)cc1`, the T/C reads like this: (dose: 6.25 mg/kg/injection, schedule: Q01DX009 (ip), vehicle: saline) 100 % of control and 113 % of control; (dose: 12.5 mg/kg/injection, schedule: Q01DX009 (ip), vehicle: saline) 150 % of control and 154 % of control; (dose: 25.0 mg/kg/injection, schedule: Q01DX009 (ip), vehicle: saline) 150 % of control and 220 % of control.

Turning to `Clc1ccc(-c2nnc(-c3ccccc3)o2)cc1Cl`, the T/C is, setting by setting: under setting [1], 112 % of control; under setting [2], 105 % of control; under setting [3], 112 % of control; (dose: 400.0 mg/kg/injection, schedule: Q01DX009 (ip), vehicle: Klucel (hydroxypropylcellulose) (HPC)) 100 % of control.

With `CC(=O)SCCCCl`, the T/C runs as follows: (dose: 50.0 mg/kg/injection, schedule: Q04DX003 (ip), vehicle: saline with Tween-80) 100 % of control; under setting [5], 109 % of control; under setting [7], 109 % of control.

On to `CCOC(=O)Cn1c(=O)cc(-c2ccccc2)oc1=O`, for which the T/C reads like this: under setting [10], 106 % of control; under setting [4], 107 % of control; under setting [6], 90 % of control.

Turning to `COC(=O)C1(C)CCCC2(C)C1CCC13C=C(C(C)C)C(CC1C(=O)O)CC23` (centres undefined), the T/C reads like this: under setting [5], 91 % of control; under setting [7], 100 % of control.

As for `CC1NC(=O)NC(=O)C1(Cl)Cl` (centres undefined), the T/C reads like this: (dose: 50.0 mg/kg/injection, schedule: Q01DX009 (ip), vehicle: saline) 101 % of control; (dose: 100.0 mg/kg/injection, schedule: Q01DX009 (ip), vehicle: saline) 99 % of control and 109 % of control; (dose: 200.0 mg/kg/injection, schedule: Q01DX009 (ip), vehicle: saline) 100 % of control and 109 % of control.

Turning to `O=C(O)C(=O)O.O=C(O)C(=O)O.O=C(O)C(=O)O.[Ir]`, the T/C runs as follows: (dose: 12.5 mg/kg/injection, schedule: Q04DX003 (ip), vehicle: water) 120 % of control; (dose: 25.0 mg/kg/injection, schedule: Q04DX003 (ip), vehicle: water) 120 % of control; (dose: 50.0 mg/kg/injection, schedule: Q04DX003 (ip), vehicle: water) 93 % of control; (dose: 100.0 mg/kg/injection, schedule: Q04DX003 (ip), vehicle: water) 98 % of control.

In the case of `CN(C)c1ccc(CN(Cc2ccccc2)CC(O)c2ccccc2)cc1` (centres undefined), the T/C was 97 % of control (dose: 6.25 mg/kg/injection, schedule: Q01DX009 (ip), vehicle: saline with Tween-80); 100 % of control (dose: 12.5 mg/kg/injection, schedule: Q01DX009 (ip), vehicle: saline with Tween-80); 100 % of control (dose: 25.0 mg/kg/injection, schedule: Q01DX009 (ip), vehicle: saline with Tween-80); 102 % of control under setting [10].

Take `O=C1C=CC(=O)N1c1ccc(N2C(=O)C=CC2=O)cc1`: the T/C is, setting by setting: (dose: 0.78 mg/kg/injection, schedule: Q01DX009 (ip), vehicle: distilled water + Tween-80) 102 % of control and 115 % of control; (dose: 1.56 mg/kg/injection, schedule: Q01DX009 (ip), vehicle: distilled water + Tween-80) 103 % of control and 120 % of control; (dose: 3.13 mg/kg/injection, schedule: Q01DX009 (ip), vehicle: distilled water + Tween-80) 121 % of control and 97 % of control; (dose: 6.25 mg/kg/injection, schedule: Q01DX009 (ip), vehicle: distilled water + Tween-80) 112 % of control and 118 % of control; (dose: 12.5 mg/kg/injection, schedule: Q01DX009 (ip), vehicle: distilled water + Tween-80) 105 % of control.

As to `COc1ccc(Cc2c3ccccc3cc[n+]2Cc2ccccc2)cc1OC`, the T/C is, setting by setting: (dose: 6.25 mg/kg/injection, schedule: Q01DX005 (ip), vehicle: saline with Tween-80) 103 % of control; (dose: 12.5 mg/kg/injection, schedule: Q01DX005 (ip), vehicle: saline with Tween-80) 111 % of control; (dose: 25.0 mg/kg/injection, schedule: Q01DX005 (ip), vehicle: saline with Tween-80) 111 % of control; (dose: 50.0 mg/kg/injection, schedule: Q01DX005 (ip), vehicle: saline with Tween-80) 114 % of control.

As for `CC1(C)CC(Nc2ccccc2)=CC(N2CCOCC2)=N1`, the T/C reads like this: under setting [11], 103 % of control; under setting [12], 100 % of control.

`Cc1ccc(S(=O)(=O)OI(C#Cc2ccccc2)c2ccccc2)cc1`: the T/C was 99 % of control (dose: 77.5 mg/kg/injection, schedule: Q04DX002 (ip), vehicle: Klucel (hydroxypropylcellulose) (HPC)); 89 % of control (dose: 155.0 mg/kg/injection, schedule: Q04DX002 (ip), vehicle: Klucel (hydroxypropylcellulose) (HPC)); 99 % of control (dose: 310.0 mg/kg/injection, schedule: Q04DX002 (ip), vehicle: Klucel (hydroxypropylcellulose) (HPC)).

As for `CC1(C(=O)O)CCC2(C)CCC3(C)C(=CC(=O)C4C5(C)CCC(OC6OC(C(=O)O)C(O)C(O)C6OC6OC(C(=O)O)C(O)C(O)C6O)C(C)(C)C5CCC43C)C2C1` (centres undefined), the T/C is, setting by setting: (dose: 50.0 mg/kg/injection, schedule: Q01DX005 (ip), vehicle: saline) 99 % of control; (dose: 100.0 mg/kg/injection, schedule: Q01DX005 (ip), vehicle: saline) 97 % of control; (dose: 200.0 mg/kg/injection, schedule: Q01DX005 (ip), vehicle: saline) 103 % of control.

`CCOC(=O)C1=C(c2ccccc2)Nc2ccccc2[S+]1C` (centres undefined): the T/C is 99 % of control (dose: 15.0 mg/kg/injection, schedule: Q01DX005 (ip), vehicle: saline); 98 % of control (dose: 30.0 mg/kg/injection, schedule: Q01DX005 (ip), vehicle: saline); 98 % of control and 96 % of control (dose: 60.0 mg/kg/injection, schedule: Q01DX005 (ip), vehicle: saline).

On to `O=C(NC(Cc1ccccc1)C(=O)O)OCc1ccccc1` (centres undefined) (tested in a mixture with another compound), for which the T/C (dose: 6.25 mg/kg/injection, schedule: Q01DX005 (ip), vehicle: Klucel (hydroxypropylcellulose) (HPC)) is 109 % of control; the T/C (dose: 12.5 mg/kg/injection, schedule: Q01DX005 (ip), vehicle: Klucel (hydroxypropylcellulose) (HPC)) was 106 % of control; the T/C (dose: 25.0 mg/kg/injection, schedule: Q01DX005 (ip), vehicle: Klucel (hydroxypropylcellulose) (HPC)) was 94 % of control.

In the case of `Oc1c(Cl)c(Cl)c(O)c(Cl)c1Cl`, the T/C was 98 % of control (dose: 6.25 mg/kg/injection, schedule: Q04DX003 (ip), vehicle: Klucel (hydroxypropylcellulose) (HPC)); 99 % of control (dose: 12.5 mg/kg/injection, schedule: Q04DX003 (ip), vehicle: Klucel (hydroxypropylcellulose) (HPC)); 98 % of control (dose: 25.0 mg/kg/injection, schedule: Q04DX003 (ip), vehicle: Klucel (hydroxypropylcellulose) (HPC)).

On to `NC(=S)N/N=C1/CCCC/C1=N/O`, for which the T/C is, setting by setting: under setting [8], 100 % of control; under setting [9], 100 % of control.

In the case of `Cc1cc(Br)ccc1N1C(=O)CC(Sc2ccccc2N)C1=O` (centres undefined), the T/C under setting [11] is 88 % of control; the T/C under setting [12] is 95 % of control; the T/C (dose: 200.0 mg/kg/injection, schedule: Q01DX005 (ip), vehicle: Klucel (hydroxypropylcellulose) (HPC)) is 100 % of control.

The record behind these values is PubChem BioAssay AID330 (DTP/NCI, 2004).
